Reference: article PMC12472494, “Anticonvulsant Potential of 1-Aryl-6,7-dimethoxy-1,2,3,4-tetrahydroisoquinolines: Insights from Strychnine and Nicotine Models in In Vivo and In Silico Studies” (Pharmaceuticals, 2025)
Where “and” joins values, the source holds several entries; their conditions need not be identical. Equal entries are not always repeated. Entries after “also recorded” stand apart in the source; their conditions may differ.

Key:
[1] = system: strychnine-induced seizures; assay: Strychnine-induced seizure model; type: in vivo, mice; settings: for responders at 1 mg/kg: Mus musculus, read-out: Survival Rate; for responders at 1 mg/kg / Duration of Tremor and Seizures / Latency to Tremor and Seizure Onset: oral dose 1.0 mg/kg 60 min before strychnine 1.5 mg/kg s.c., N = 10; for Duration of Tremor and Seizures / Latency to Tremor and Seizure Onset: mean ± SD; for survival rate of strychnine-poisoned animals: dose not given
From the text: (§1) The anticonvulsant effects of the examined substances were studied in male white mice weighing 18–22 g, divided into the following groups: control (including the strychnine and nicotine groups), carbamazepine group, Convulex group, and experimental groups (one for each tested substance). Simple randomization (“heads or tails” coin toss) was used to assign animals to groups. Each group contained 10 animals. Healthy animals were included in the experiments after a 14-day quarantine period. No animals were excluded from the study. Convulsant agents were administered subcutaneously at doses of 10.0 mg/kg for nicotine (Sigma–Aldrich, Saint Louis, MO, USA) and 1.5 mg/kg for strychnine (Sigma–Aldrich, Saint Louis, MO, USA), 60 min after the oral administration of the test substances at doses ranging from 0.1 to 10 mg/kg. The onset time, duration of tremors and seizures, and survival rate of the animals were recorded. Carbamazepine (Darnitsa, Kiev, Ukraine) at doses of 5.0–10.0 mg/kg and Convulex (valproate) (Gerot Pharmazeutika GmbH, Vienna, Austria) at doses of 75.0–100.0 mg/kg (based on the therapeutic anticonvulsant dose) were used as reference drugs.
(§2) Data were presented as mean ± SD for different groups. Statistical analysis was performed using OriginPro 9.0 (MicroCal Software, Northampton, MA, USA), with p < 0.05 considered statistically significant.

[2] = system: tremorogenic and convulsive actions of nicotine; assay: Nicotine-induced tremor and seizure model; type: in vivo, mice; settings: for responders at 1 mg/kg: Mus musculus, po, read-out: Survival Rate; for Duration of Seizures / Latency to Seizure Onset: oral dose 1.0 mg/kg 60 min before nicotine 10 mg/kg s.c., mean ± SD, N = 10; for survival of poisoned animals compared to carbamazepine and valproate (in words): mouse, in vivo; for survival rate of the animals increased to: at low doses (0.1–5 mg/kg); for activity against tremorogenic and convulsive actions of nicotine versus reference drugs (in words): doses of 0.1–5 mg/kg
From the text: as §1, §2

[3] = design: method as in PMID 36677539; settings: per os; cited from earlier work
[4] = doses of 0.5–1 mg/kg, versus control

Row | Compound | responders at 1 mg/kg [1] [%] | Duration of Tremor and Seizures [1] [min] | Latency to Tremor and Seizure Onset [1] [min] | responders at 1 mg/kg [2] [%] | Duration of Seizures [2] [min] | Latency to Seizure Onset [2] [min] | LD50 [3] | survival rate of strychnine-poisoned animals [1] | survival of poisoned animals compared to carbamazepine and valproate (in words) [2] | increase of animal survival ([1]; doses of 0.5–1 mg/kg) [%] | extension of the latency period for seizures [1, 4] | reduction of seizure duration [1, 4] | activity against strychnine-induced seizures (in words) ([1]; ranking within the series) | survival rate of the animals increased to [2] | activity against tremorogenic and convulsive actions of nicotine versus reference drugs (in words) [2]
1 | COc1cc(C2NCCc3cc(OC)c(OC)cc32)ccc1O (stereo not drawn) [Compound 21, 1-(4′-Hydroxy-3′-methoxyphenyl)-6,7-dimethoxy-1,2,3,4-tetrahydroisoquinoline] | 40 | 0.52 ± 0.4 | 15.4 ± 1.5 | 60 | 14.3 ± 0.6 | 1.8 ± 0.04 | 1663.6 (1623.1 ± 1629.1) mg/kg |  |  |  |  |  |  |  | 
2 | COc1ccc(C2NCCc3cc(OC)c(OC)cc32)cc1OC (stereo not drawn) [Compound 22, 1-(3′,4′-Dimethoxyphenyl)-6,7-dimethoxy-1,2,3,4-tetrahydroisoquinoline] | 30 | 0.71 ± 0.6 | 12.7 ± 1.3 | 80 |  | 2.2 ± 0.04 | 666.6 (557.9 ± 760.2) mg/kg | no more than 40% |  |  |  |  |  |  | 
3 | COc1cc2c(cc1OC)C(c1cccc(OC)c1[N+](=O)[O-])NCC2 (stereo not drawn) [Compound 23, 1-(3′-Methoxy-2′-nitrophenyl)-6,7-dimethoxy-1,2,3,4-tetrahydroisoquinoline] | 30 | 0.60 ± 0.4 | 14.6 ± 1.4 | 20 | 5.4 ± 0.9 | 1.5 ± 0.08 | 315.4 (281.0 ± 344.2) mg/kg |  |  |  |  |  |  |  | 
4 | COc1cc(Br)c(C2NCCc3cc(OC)c(OC)cc32)cc1O (stereo not drawn) [Compound 24, 1-(2′-Bromo-4′-methoxy-5′-hydroxyphenyl)-6,7-dimethoxy-1,2,3,4-tetrahydroisoquinoline] | 30 | 0.32 ± 0.4 | 10.2 ± 1.2 | 70 | 7.3 ± 0.3 | 2.1 ± 0.09 | 546.9 (516.3 ± 571.6) mg/kg |  | did not improve the survival |  |  |  |  |  | 
5 | COc1cc(Br)c(C2NCCc3cc(OC)c(OC)cc32)cc1OC (stereo not drawn) [Compound 25, 1-(2′-Bromo-4′,5′-dimethoxyphenyl)-6,7-dimethoxy-1,2,3,4-tetrahydroisoquinoline] | 90 | 0.14 ± 0.6 | 16.5 ± 1.5 | 90 | 9.0 ± 0.9 | 2.2 ± 0.04 | 272.1 (249.1 ± 295.6) mg/kg | 90% |  | 90 | 30–100% | 3.7–4 times | most active; also recorded: highest activity | 90–100% | comparable activity to the reference drugs
6 | COc1cc2c(cc1OC)C(c1cc(OC)c(OC)cc1[N+](=O)[O-])NCC2 (stereo not drawn) [Compound 26, 1-(4′,5′-Dimethoxy-2′-nitrophenyl)-6,7-dimethoxy-1,2,3,4-tetrahydroisoquinoline] | 40 | 0.51 ± 0.8 | 16.7 ± 1.2 | 80 | 10.8 ± 0.4 | 2.6 ± 0.03 | 524.5 (501.3 ± 547.7) mg/kg |  |  |  |  |  |  |  | 
7 | COc1cc2c(cc1OC)C(c1ccc(OC)c(O)c1Br)NCC2 (stereo not drawn) [Compound 27, 1-(2′-Bromo-3′-hydroxy-4′-methoxyphenyl)-6,7-dimethoxy-1,2,3,4-tetrahydroisoquinoline] | 40 | 0.53 ± 0.3 | 10.5 ± 1.5 | 90 | 9.7 ± 0.9 | 2.2 ± 0.02 | 4700 mg/kg and 4937 mg/kg and 4937.4 (4827.7 ± 5084.9) mg/kg |  | did not improve the survival |  |  |  |  | 90–100% | comparable activity to the reference drugs
8 | COc1cc2c(cc1OC)C(c1cc(Br)c(O)c(OC)c1)NCC2 (stereo not drawn) [Compound 28, 1-(5′-Bromo-4′-hydroxy-3′-methoxyphenyl)-6,7-dimethoxy-1,2,3,4-tetrahydroisoquinoline] | 20 | 0.34 ± 0.8 | 15.5 ± 1.5 | 70 | 9.2 ± 0.4 | 2.7 ± 0.04 | 1532.7 (1471.5 ± 1579.5) mg/kg |  | did not improve the survival |  |  |  |  |  | 
9 | COc1cc2c(cc1OC)C(c1ccc3c(c1)OCO3)NCC2 (stereo not drawn) [Compound 29, 1-(3′,4′-Methylenedioxyphenyl)-6,7-dimethoxy-1,2,3,4-tetrahydroisoquinoline] | 50 | 0.32 ± 0.9 | 12.5 ± 1.8 | 90 | 3.7 ± 0.9 | 2.5 ± 0.07 | 267.2 (226.3 ± 301.1) mg/kg |  |  |  |  |  |  | 90–100% | comparable activity to the reference drugs
10 | COc1cc2c(cc1OC)C(c1cc3c(cc1Br)OCO3)NCC2 (stereo not drawn) [Compound 30, 1-(2′-Bromo-4′,5′-methylenedioxyphenyl)-6,7-dimethoxy-1,2,3,4-tetrahydroisoquinoline] | 30 | 0.41 ± 0.4 | 11.2 ± 1.2 | 90 | 7.0 ± 0.2 | 2.5 ± 0.09 | 711.7 (604.3 ± 792.9) mg/kg |  |  |  |  |  |  | 90–100% | comparable activity to the reference drugs
11 | COc1cc2c(cc1OC)C(c1cc3c(cc1Cl)OCO3)NCC2 (stereo not drawn) [Compound 31, 1-(4′,5′-Methylenedioxy-2′-chlorophenyl)-6,7-dimethoxy-1,2,3,4-tetrahydroisoquinoline] | 30 | 0.59 ± 0.5 | 13.6 ± 1.9 | 90 | 10.7 ± 0.9 | 2.3 ± 0.08 | 520.8 (491.9 ± 545.4) mg/kg |  |  |  |  |  |  | 90–100% | comparable activity to the reference drugs
12 | COc1cc2c(cc1OC)C(c1ccccc1N)NCC2 (stereo not drawn) [Compound 32, 1-(2′-Aminophenyl)-6,7-dimethoxy-1,2,3,4-tetrahydroisoquinoline] | 50 | 0.34 ± 0.4 | 18.2 ± 1.7 | 60 | 12.2 ± 0.8 | 1.8 ± 0.06 | 366.3 (326.3 ± 395.6) mg/kg |  |  |  |  |  |  |  | 
